Reference: ChEMBL document CHEMBL5678809, “Preclinical characterization of GLPG0634, a selective inhibitor of JAK1, for the treatment of inflammatory diseases” (J Immunol, 2013)
Active and inactive are the calls of the source. The rule behind the calls is not given here.

Assays:
[1] = biological target: Tyrosine-protein kinase BTK (Homo sapiens, UniProt Q06187); assay: Inhibition of BTK (unknown origin)
[2] = biological target: Cyclin-dependent kinase 1/cyclin B1 (Homo sapiens) (UniProt P06493+P14635); assay: Inhibition of CDK1/cyclinB (unknown origin) at 1 uM relative to control; format: protein-complex assay
[3] = biological target: CDK7/Cyclin H/MNAT1 (Homo sapiens) (UniProt P51946+P50613+P51948); assay: Inhibition of CDK7/cyclinH/MAT1 (unknown origin) at 1 uM relative to control; format: protein-complex assay
[4] = biological target: Mast/stem cell growth factor receptor Kit (Homo sapiens, UniProt P10721); assay: Inhibition of cKIT (unknown origin)
[5] = biological target: Casein kinase I isoform gamma-2 (Homo sapiens, UniProt P78368); assay: Inhibition of CSNK1G2 (unknown origin)
[6] = biological target: Epidermal growth factor receptor (Homo sapiens) (UniProt P00533); assay: Inhibition of EGFR (unknown origin) at 1 uM relative to control
[7] = biological target: Ephrin type-B receptor 4 (Homo sapiens) (UniProt P54760); assay: Inhibition of EphB4 (unknown origin) at 1 uM relative to control
Sequence of Ephrin type-B receptor 4 (Homo sapiens) (P54760 whole entry): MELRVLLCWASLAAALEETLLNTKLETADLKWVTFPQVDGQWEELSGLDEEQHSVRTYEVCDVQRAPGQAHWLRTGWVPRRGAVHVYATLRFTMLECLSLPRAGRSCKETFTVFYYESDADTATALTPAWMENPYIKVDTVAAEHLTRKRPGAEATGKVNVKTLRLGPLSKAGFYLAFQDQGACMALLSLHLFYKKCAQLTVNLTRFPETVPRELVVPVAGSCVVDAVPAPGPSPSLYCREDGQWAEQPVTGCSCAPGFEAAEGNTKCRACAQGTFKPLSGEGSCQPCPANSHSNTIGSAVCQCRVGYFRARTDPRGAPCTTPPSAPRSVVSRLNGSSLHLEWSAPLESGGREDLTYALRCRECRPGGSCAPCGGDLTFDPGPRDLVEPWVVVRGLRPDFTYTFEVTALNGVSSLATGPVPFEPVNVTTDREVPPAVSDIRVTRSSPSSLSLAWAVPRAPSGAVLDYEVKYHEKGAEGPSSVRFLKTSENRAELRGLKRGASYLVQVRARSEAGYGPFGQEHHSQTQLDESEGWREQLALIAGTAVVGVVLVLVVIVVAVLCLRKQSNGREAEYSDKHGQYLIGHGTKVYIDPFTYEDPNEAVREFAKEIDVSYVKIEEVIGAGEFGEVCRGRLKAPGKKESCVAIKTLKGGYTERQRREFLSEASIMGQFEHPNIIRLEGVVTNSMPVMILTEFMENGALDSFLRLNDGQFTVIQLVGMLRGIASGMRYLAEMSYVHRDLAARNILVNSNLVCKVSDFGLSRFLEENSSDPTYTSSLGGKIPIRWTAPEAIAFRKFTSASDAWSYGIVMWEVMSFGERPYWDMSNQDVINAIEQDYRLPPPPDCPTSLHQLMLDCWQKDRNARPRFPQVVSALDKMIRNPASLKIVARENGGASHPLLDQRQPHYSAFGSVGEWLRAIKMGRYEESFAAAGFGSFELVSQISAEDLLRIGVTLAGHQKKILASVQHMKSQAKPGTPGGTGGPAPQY

[8] = biological target: Receptor tyrosine-protein kinase erbB-4 (Homo sapiens) (UniProt Q15303); assay: Inhibition of ErbB4 (unknown origin) at 1 uM relative to control
[9] = biological target: Vascular endothelial growth factor receptor 1 (Homo sapiens, UniProt P17948); assay: Inhibition of Flt1 (unknown origin)
[10] = biological target: Insulin receptor (Homo sapiens) (UniProt P06213); assay: Inhibition of IR (unknown origin) at 1 uM relative to control
Sequence of Insulin receptor (Homo sapiens) (P06213 28-758 limits assumed): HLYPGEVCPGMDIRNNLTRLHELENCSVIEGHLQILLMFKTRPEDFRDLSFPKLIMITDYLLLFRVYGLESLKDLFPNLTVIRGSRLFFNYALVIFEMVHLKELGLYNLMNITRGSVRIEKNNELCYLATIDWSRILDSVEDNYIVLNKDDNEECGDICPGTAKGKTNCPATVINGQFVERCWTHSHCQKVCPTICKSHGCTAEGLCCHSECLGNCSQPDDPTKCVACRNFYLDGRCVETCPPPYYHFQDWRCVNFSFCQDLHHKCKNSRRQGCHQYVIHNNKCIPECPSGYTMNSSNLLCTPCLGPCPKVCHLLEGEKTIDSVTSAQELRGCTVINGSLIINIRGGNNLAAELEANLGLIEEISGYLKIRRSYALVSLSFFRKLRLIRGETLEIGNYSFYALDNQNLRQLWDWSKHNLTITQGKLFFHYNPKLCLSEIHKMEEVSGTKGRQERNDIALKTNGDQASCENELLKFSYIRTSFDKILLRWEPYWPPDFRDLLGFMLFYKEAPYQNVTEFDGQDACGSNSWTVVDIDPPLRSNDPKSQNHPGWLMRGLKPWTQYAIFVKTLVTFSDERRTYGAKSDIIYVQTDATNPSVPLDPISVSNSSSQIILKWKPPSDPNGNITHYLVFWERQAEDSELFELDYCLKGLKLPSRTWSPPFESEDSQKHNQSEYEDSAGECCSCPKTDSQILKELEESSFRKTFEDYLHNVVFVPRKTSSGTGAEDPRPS
Sequence of Insulin receptor (Homo sapiens) (P06213 763-1382 limits assumed): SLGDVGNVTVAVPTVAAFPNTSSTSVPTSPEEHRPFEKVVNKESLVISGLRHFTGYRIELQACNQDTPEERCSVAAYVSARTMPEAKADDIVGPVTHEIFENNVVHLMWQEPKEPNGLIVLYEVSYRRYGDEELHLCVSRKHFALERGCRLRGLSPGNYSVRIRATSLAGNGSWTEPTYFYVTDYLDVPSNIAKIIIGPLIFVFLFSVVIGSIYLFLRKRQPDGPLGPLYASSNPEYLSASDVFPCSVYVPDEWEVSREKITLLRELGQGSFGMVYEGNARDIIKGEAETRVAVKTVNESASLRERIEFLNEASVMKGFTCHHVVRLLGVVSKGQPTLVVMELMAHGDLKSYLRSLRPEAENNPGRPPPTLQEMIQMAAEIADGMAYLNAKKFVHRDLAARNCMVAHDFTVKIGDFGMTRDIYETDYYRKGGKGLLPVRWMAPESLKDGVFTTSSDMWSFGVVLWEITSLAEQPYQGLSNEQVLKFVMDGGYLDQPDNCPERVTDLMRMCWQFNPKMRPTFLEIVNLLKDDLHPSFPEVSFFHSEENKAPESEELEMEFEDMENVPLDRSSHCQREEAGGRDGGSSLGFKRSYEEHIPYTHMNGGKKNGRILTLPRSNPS

[11] = biological target: Tyrosine-protein kinase Lyn (Homo sapiens, UniProt P07948); assay: Inhibition of LYNA (unknown origin)
[12] = biological target: Mitogen-activated protein kinase kinase kinase 3 (Homo sapiens, UniProt Q99759); assay: Inhibition of MAP3K3 (unknown origin)
[13] = biological target: Mitogen-activated protein kinase kinase kinase kinase 4 (Homo sapiens, UniProt O95819); assay: Inhibition of MAP4K4 (unknown origin)
[14] = biological target: Mitogen-activated protein kinase 1 (Homo sapiens) (UniProt P28482); assay: Inhibition of MAPK1 (unknown origin) at 1 uM relative to control
[15] = biological target: Serine/threonine-protein kinase MARK1 (Homo sapiens) (UniProt Q9P0L2); assay: Inhibition of MARK1 (unknown origin) at 1 uM relative to control
[16] = biological target: T1, MAP kinase-interacting serine/threonine-protein kinase 2 (Homo sapiens, UniProt Q9HBH9); assay: Inhibition of MNK2 (unknown origin)
[17] = biological target: Serine/threonine-protein kinase Nek11 (Homo sapiens) (UniProt Q8NG66); assay: Inhibition of NEK11 (unknown origin) at 1 uM relative to control
Sequence of Serine/threonine-protein kinase Nek11 (Homo sapiens) (Q8NG66 whole entry): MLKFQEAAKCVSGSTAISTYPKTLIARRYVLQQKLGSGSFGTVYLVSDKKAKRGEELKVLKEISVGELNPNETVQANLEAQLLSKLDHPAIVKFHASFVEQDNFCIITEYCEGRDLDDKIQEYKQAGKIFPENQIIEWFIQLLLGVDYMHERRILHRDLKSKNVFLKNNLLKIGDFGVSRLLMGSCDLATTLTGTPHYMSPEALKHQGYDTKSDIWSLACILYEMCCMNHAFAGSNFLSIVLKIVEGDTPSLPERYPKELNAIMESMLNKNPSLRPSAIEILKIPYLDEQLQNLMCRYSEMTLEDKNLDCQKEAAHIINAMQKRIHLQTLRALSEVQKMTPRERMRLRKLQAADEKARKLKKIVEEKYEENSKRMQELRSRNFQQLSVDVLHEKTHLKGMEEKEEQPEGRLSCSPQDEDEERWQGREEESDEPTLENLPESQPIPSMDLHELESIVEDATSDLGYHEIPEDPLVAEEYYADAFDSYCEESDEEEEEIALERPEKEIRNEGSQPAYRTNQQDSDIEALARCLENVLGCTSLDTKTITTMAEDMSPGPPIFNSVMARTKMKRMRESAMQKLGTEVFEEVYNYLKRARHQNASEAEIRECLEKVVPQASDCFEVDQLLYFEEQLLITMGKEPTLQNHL

[18] = biological target: Serine/threonine-protein kinase NLK (Homo sapiens) (UniProt Q9UBE8); assay: Inhibition of NLK (unknown origin) at 1 uM relative to control
[19] = biological target: Serine/threonine-protein kinase pim-1 (Homo sapiens) (UniProt P11309); assay: Inhibition of Pim-1 (unknown origin) at 1 uM relative to control
[20] = biological target: Protein kinase C beta type (Homo sapiens) (UniProt P05771); assay: Inhibition of PKCb (unknown origin) at 1 uM relative to control
[21] = biological target: Serine/threonine-protein kinase D2 (Homo sapiens) (UniProt Q9BZL6); assay: Inhibition of PKD2 (unknown origin) at 1 uM relative to control
[22] = biological target: Proto-oncogene tyrosine-protein kinase ROS (Homo sapiens) (UniProt P08922); assay: Inhibition of Ros (unknown origin) at 1 uM relative to control
[23] = biological target: Serine/threonine-protein kinase SIK1 (Homo sapiens) (UniProt P57059); assay: Inhibition of SIK (unknown origin) at 1 uM relative to control
[24] = biological target: Serine/threonine-protein kinase TAO1 (Homo sapiens) (UniProt Q7L7X3); assay: Inhibition of TAO1 (unknown origin) at 1 uM relative to control
[25] = biological target: Serine/threonine-protein kinase ULK3 (Homo sapiens) (UniProt Q6PHR2); assay: Inhibition of ULK3 (unknown origin) at 1 uM relative to control
Sequence of Serine/threonine-protein kinase ULK3 (Homo sapiens) (Q6PHR2 whole entry): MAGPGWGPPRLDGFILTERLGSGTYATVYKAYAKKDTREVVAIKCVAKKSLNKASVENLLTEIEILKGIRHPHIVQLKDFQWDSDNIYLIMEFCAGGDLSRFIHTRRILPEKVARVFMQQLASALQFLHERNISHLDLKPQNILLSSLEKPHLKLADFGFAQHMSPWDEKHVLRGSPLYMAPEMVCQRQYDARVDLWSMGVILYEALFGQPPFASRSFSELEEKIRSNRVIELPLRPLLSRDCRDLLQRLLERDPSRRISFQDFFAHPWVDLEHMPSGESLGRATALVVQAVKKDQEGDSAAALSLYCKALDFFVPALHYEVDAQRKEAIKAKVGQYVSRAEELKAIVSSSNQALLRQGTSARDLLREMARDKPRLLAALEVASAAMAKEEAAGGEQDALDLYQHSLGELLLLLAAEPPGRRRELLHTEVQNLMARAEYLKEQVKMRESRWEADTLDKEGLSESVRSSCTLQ

[26] = biological target: Serine/threonine-protein kinase VRK2 (Homo sapiens) (UniProt Q86Y07); assay: Inhibition of VRK2 (unknown origin) at 1 uM relative to control
[27] = biological target: Death-associated protein kinase 3 (Homo sapiens) (UniProt O43293); assay: Inhibition of ZIPK (unknown origin) at 1 uM relative to control
[28] = biological target: Tyrosine-protein kinase Mer (Homo sapiens) (UniProt Q12866); assay: Inhibition of Mer (unknown origin) at 1 uM relative to control
[29] = biological target: T1, MAP kinase-interacting serine/threonine-protein kinase 2; assay: Inhibition of MNK2 (unknown origin) at 1 uM relative to control
[30] = biological target: Vascular endothelial growth factor receptor 3 (Homo sapiens, UniProt P35916); assay: Inhibition of Flt4 (unknown origin) at 1 uM relative to control
Sequence of Vascular endothelial growth factor receptor 3 (P35916 whole entry): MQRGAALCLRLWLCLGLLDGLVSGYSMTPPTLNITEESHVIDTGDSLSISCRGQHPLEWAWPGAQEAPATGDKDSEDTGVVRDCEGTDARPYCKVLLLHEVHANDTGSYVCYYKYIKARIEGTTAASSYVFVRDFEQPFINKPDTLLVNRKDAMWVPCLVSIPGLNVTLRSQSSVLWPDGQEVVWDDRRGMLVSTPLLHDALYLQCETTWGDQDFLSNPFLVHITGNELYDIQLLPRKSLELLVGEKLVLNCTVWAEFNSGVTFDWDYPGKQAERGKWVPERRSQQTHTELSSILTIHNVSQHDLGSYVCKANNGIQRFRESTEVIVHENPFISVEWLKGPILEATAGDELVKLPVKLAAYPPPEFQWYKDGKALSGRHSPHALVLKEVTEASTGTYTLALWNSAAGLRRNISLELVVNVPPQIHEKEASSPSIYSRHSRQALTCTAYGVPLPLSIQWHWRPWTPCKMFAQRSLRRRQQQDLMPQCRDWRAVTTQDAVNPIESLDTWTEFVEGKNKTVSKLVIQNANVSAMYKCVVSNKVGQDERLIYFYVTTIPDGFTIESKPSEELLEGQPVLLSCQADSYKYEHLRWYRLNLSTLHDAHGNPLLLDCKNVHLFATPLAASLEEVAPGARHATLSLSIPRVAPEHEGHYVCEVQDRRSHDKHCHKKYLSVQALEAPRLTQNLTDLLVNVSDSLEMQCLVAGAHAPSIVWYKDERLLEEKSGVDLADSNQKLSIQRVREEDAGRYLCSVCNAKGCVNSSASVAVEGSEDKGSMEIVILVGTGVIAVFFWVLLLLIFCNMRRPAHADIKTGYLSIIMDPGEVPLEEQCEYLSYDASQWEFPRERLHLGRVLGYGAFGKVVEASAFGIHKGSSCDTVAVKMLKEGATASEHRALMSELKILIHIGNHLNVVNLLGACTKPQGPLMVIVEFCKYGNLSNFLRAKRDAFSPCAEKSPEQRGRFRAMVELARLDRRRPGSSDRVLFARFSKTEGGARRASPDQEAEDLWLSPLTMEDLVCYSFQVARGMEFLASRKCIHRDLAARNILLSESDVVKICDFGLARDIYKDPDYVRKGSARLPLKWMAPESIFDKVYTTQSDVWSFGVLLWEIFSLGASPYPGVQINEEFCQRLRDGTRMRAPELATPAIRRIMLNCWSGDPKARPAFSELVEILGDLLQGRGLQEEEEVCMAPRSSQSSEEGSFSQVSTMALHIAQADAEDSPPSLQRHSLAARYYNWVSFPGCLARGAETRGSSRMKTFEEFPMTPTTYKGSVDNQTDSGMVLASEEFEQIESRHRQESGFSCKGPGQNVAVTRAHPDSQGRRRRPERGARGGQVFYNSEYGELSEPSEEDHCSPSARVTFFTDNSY

[31] = AUC (0 to 24 hrs) in CD-1 mouse at 1 mg/kg, iv measured upto 8 hrs by LC-MS analysis; format: ADME, organism-based; conditions: in vivo
[32] = Half life in CD-1 mouse at 5 mg/kg, po measured upto 24 hrs by LC-MS analysis; format: ADME, organism-based; conditions: in vivo
[33] = Oral bioavailability in CD-1 mouse at 5 mg/kg measured upto 24 hrs by LC-MS analysis; format: ADME, organism-based; conditions: in vivo
[34] = Half life in Sprague-Dawley rat at 1 mg/kg, iv measured upto 8 hrs by LC-MS analysis; format: ADME, organism-based; conditions: in vivo
[35] = Cmax in Sprague-Dawley rat at 5 mg/kg, po measured upto 24 hrs by LC-MS analysis; format: ADME, organism-based; conditions: in vivo
[36] = Tmax in Dark Agouti rat at 3 to 30 mg/kg, po; format: ADME, organism-based; conditions: in vivo, dose 3-30 mg/kg
Rattus norvegicus = assay: Antiarthritic activity against collagen-induced arthritis Dark Agouti rat model assessed as reduction in bone degradation by measuring larsen score administered 3 times a week and measured on day 7 by X-ray analysis; format: functional, organism-based; conditions: dose 3.0 mg/kg, time 7.0 day
Mus musculus [37] = assay: Antiarthritic activity against collagen-induced arthritis DBA/1J mouse model assessed as bone degradation by measuring lesion score in hind paw at 50 mg/kg, po administered twice daily for 14 days by histological analysis; format: functional, organism-based; conditions: time 14.0 day
Mus musculus [38] = assay: Antiarthritic activity against collagen-induced arthritis DBA/1J mouse model assessed as cartilage degradation by measuring lesion score in hind paw at 50 mg/kg, po administered twice daily for 14 days by histological analysis; format: functional, organism-based; conditions: time 14.0 day
Mus musculus [39] = assay: Antiarthritic activity against collagen-induced arthritis DBA/1J mouse model assessed as reduction in RANKL expression at 50 mg/kg, po measured for 4 hrs; format: functional, organism-based
Mus musculus [40] = assay: Antiarthritic activity against collagen-induced arthritis DBA/1J mouse model assessed as reduction in MX2 expression in paw at 50 mg/kg, po measured for 2 weeks by RT-PCR analysis; format: functional, organism-based
Mus musculus [41] = assay: Antiarthritic activity against collagen-induced arthritis DBA/1J mouse model assessed as SCF level in serum at 50 mg/kg, po measured for 4 hrs by luminex analysis (reference value: 672.4 +/- 242.2 ng/ml); format: functional

## O=C(Nc1nc2cccc(-c3ccc(CN4CCS(=O)(=O)CC4)cc3)n2n1)C1CC1 [FILGOTINIB]
[1]
  IC50: > 10 µM
[2]
  inhibition: 7%
[3]
  inhibition: 12%
[4]
  IC50: > 10 µM
[5]
  IC50: > 10 µM
[6]
  inhibition: -5%
[7]
  inhibition: 5%
[8]
  inhibition: -5%
[9]
  IC50: 1.33 µM
[10]
  inhibition: -1%
[11]
  IC50: > 10 µM
[12]
  IC50: > 10 µM
[13]
  IC50: > 10 µM
[14]
  inhibition: 1%
[15]
  inhibition: 7%
[16]
  IC50: > 10 µM
[17]
  inhibition: -2%
[18]
  inhibition: -6%
[19]
  inhibition: -7%
[20]
  inhibition: -2%
[21]
  inhibition: -10%
[22]
  inhibition: -9%
[23]
  inhibition: 1%
[24]
  inhibition: -4%
[25]
  inhibition: 4%
[26]
  inhibition: 2%
[27]
  inhibition: 3%
[28]
  inhibition: 44%
[29]
  inhibition: -10%
[30]
  inhibition: 77%
[31]
  AUC: 347 ng·h/mL
[32]
  half-life: 1.7 h
[33]
  bioavailability: ~100%
[34]
  half-life: 1.6 h
[35]
  Cmax: 310 ng/mL
[36]
  Tmax: ~1 h
Rattus norvegicus
  Activity: Dose-Dependent Effect
Mus musculus [37]
  Activity: Active
Mus musculus [38]
  Activity: Active
Mus musculus [39]
  Activity: Active
Mus musculus [40]
  Activity: Active
Mus musculus [41]
  Activity: 422.6 ng/mL
